The NIST ThermoML archive (doi:10.1016/j.jct.2016.06.016)

Tests used:
[1] = refractive index (Na D-line) (dimensionless); xn = mol fraction of the nth substance listed; conditions: 100 kPa, Liquid, Standard Abbe refractometry, x2 = 0
[2] = xn = mol fraction of the nth substance listed; conditions: 100 kPa, Liquid, x2 = 0; for viscosity: Concentric cylinders viscometry; for mass density: Vibrating tube method
[3] = refractive index (Na D-line) (dimensionless); conditions: 100 kPa, Liquid, Standard Abbe refractometry
[4] = 100 kPa, Liquid; for viscosity: Concentric cylinders viscometry; for mass density: Vibrating tube method

CCCCO [butan-1-ol] + CCOC(=O)CCC(=O)OCC
Conditions | mass density, [2] [kg/m3] | refractive index, [1] | viscosity, [2] [mPa·s]
288.15 K | 813.46 | 1.4012 | 3.365
293.15 K | 809.66 | 1.3992 | 2.913
298.15 K | 805.84 | 1.3972 | 2.563
303.15 K | 801.99 | 1.3951 | 2.257
308.15 K | 798.12 | 1.393 | 1.994
313.15 K | 794.22 | 1.391 | 1.779
318.15 K | 790.28 | 1.3889 | 1.576
323.15 K | 786.29 | 1.3867 | 1.422

CCOC(=O)CCC(=O)OCC [diethyl butanedioate]
Conditions | mass density, [4] [kg/m3] | refractive index, [3] | viscosity, [4] [mPa·s]
288.15 K | 1044.83 | 1.4217 | 3.195
293.15 K | 1039.63 | 1.4195 | 2.807
298.15 K | 1034.44 | 1.4173 | 2.491
303.15 K | 1029.25 | 1.4151 | 2.229
308.15 K | 1024.08 | 1.4129 | 2.008
313.15 K | 1018.9 | 1.4108 | 1.821
318.15 K | 1013.72 | 1.4088 | 1.66
323.15 K | 1008.55 | 1.4067 | 1.523

CCCCCCO [hexan-1-ol] + CCOC(=O)CCC(=O)OCC
Conditions | mass density, [2] [kg/m3] | refractive index, [1] | viscosity, [2] [mPa·s]
288.15 K | 822.26 | 1.4196 | 6.308
293.15 K | 818.7 | 1.4176 | 5.332
298.15 K | 815.12 | 1.4156 | 4.538
303.15 K | 811.52 | 1.4136 | 3.896
308.15 K | 807.89 | 1.4117 | 3.361
313.15 K | 804.25 | 1.4097 | 2.917
318.15 K | 800.56 | 1.4078 | 2.546
323.15 K | 796.85 | 1.4058 | 2.241

CCCO [propan-1-ol] + CCOC(=O)CCC(=O)OCC
Conditions | mass density, [2] [kg/m3] | refractive index, [1] | viscosity, [2] [mPa·s]
288.15 K | 807.75 | 1.3875 | 2.514
293.15 K | 803.77 | 1.3854 | 2.208
298.15 K | 799.76 | 1.3834 | 1.95
303.15 K | 795.72 | 1.3814 | 1.727
308.15 K | 791.64 | 1.3792 | 1.542
313.15 K | 787.52 | 1.377 | 1.378
318.15 K | 783.36 | 1.3748 | 1.236
323.15 K | 779.14 | 1.3726 | 1.124
